In patent publication US8951752B2, “N-demethyase genes and uses thereof” (priority 2011, dated 2015):

Experiments:
[1] = tested on: cell extracts prepared from P. putida CBB5; assay: NADH-dependent N-demethylase activity of CBB5 cell extracts; assay type: biochemical, Pseudomonas putida CBB5; details: 0.5 mM substrate, 7.2 mg mL^−1 protein
[2] = molecular target: T1, NdmA-His6 (Pseudomonas putida, UniProt H9N289); assay: Methylxanthine N-demethylase assay and kinetics, NdmA-His6 with His6-NdmD; assay type: biochemical, Pseudomonas putida CBB5
T1 construct: made in house; host or cells: E. coli BL21(DE3)
T1 sequence (H9N289 1-351): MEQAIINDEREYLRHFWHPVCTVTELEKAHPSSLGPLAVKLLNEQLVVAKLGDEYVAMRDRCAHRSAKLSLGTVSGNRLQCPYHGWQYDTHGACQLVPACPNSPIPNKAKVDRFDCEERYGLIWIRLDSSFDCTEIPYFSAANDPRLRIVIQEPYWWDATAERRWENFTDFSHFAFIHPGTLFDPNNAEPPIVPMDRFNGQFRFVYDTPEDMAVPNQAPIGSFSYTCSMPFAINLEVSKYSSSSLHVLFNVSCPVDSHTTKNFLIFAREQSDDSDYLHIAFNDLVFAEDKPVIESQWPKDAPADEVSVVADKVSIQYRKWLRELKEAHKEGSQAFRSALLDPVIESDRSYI
Experimental: Methylxanthine N-demethylase activity assay contained, in 1-ml total volume, 0.5 mM methylxanthine, 1 mM NADH, 50 μM Fe(NH4)2(SO4)2, and an appropriate amount of NdmA-His6 or NdmB-His6 (7.4 μg-2.5 mg protein depending on substrate specificity) in 50 mM KPi buffer (pH 7.5). Approximately 4 U of partially purified reductase, prepared as described previously (Summers et al., 2011) or 59 U of purified His6-NdmD was added to reaction mixture. Catalase from bovine liver (4,000 U) was also added to reactions containing His6-NdmD. The reaction mixture was incubated at 30° C. with 300 rpm shaking on an incubating microplate shaker (VWR, Radnor, Pa.). Periodically, a small aliquot was sampled from the reaction mixture and mixed with equal volume of acetonitrile for quantifying concentrations of methylxanthines and N-demethylated products by HPLC. One unit of N-demethylase activity was defined as the consumption of one […] methylxanthine per minute.
Apparent kinetic parameters of NdmA-His6 and NdmB-His6 were determined by measuring the initial rate of disappearance (vo) of methylxanthines in 50 mM KPi buffer (pH 7.5) at 30° C. The initial substrate concentrations (ESI) used in these experiments were from 25 to 500 μM. Substrates were incubated with His6-NdmD plus either NdmA-His6 or NdmB-His6 under standard conditions for 15 minutes. At 1, 5, 10, and 15 minutes, samples were removed from the reaction mixtures to quantitate substrate concentrations by HPLC. Plots of substrate concentrations against time were used to determine the initial rates of disappearance of substrates which were linear over 15 minutes. The apparent kinetic parameters were determined from Michaelis-Menten plots of vo against [S] fitted with the equation

**Q.** What does the source list for `Cn1cnc2c1c(=O)[nH]c(=O)n2C` [Theobromine, 3,7-dimethylxanthine]?
**A.** degradation rate compared with paraxanthine [1]: significantly slower; N-demethylase activity ([2]; NdmA): inactive; Km ([2]; NdmA-His6, 30° C., pH 7.5, ∞ where no activity): ∞
